According to US11739082B2, “Thiophene compounds, process for synthesis and use thereof” (AHAMMUNE BIOSCIENCES PRIVATE LIMITED, priority 2017, dated 2023):
pEC50: −log10 of the molar value. Counter-ions that a name gives are not always drawn.

What was measured:
human A375 cells = assay: Recovery of cell viability after tunicamycin-induced stress, MTT assay; assay type: cell-based; settings: A-375, tunicamycin 100 ng/ml, 72 h
Protocol: (§1) Methods used for Experimental Data: Mouse B16F10 or human A375 cells were seeded (5000 cells per well) in 96-well plates for 24 h. Cells were then treated in quadruplicate with multiple concentrations of compounds for 6 h. The compounds were dissolved in DMSO at 1000× concentration and then diluted to final concentration directly in cell culture medium. The vehicle control (VC) contains equal amount of DMSO. Cells were then treated with tunicamycin (Tm) (300 ng/ml for B16F10 and 100 ng/ml for A375 cells) and after 72 h of treatment, MTT assay was performed. Cell growth in vehicle control was calculated as 100% and effect of the compounds over tunicamycin treatment was calculated accordingly. EC50 values were calculated using GraphPad Prism 7 software.

mouse B16F10 cells = assay: as above; assay type: cell-based; settings: B16-F10, tunicamycin 300 ng/ml, 72 h
Protocol: as §1

SMILES | pEC50 (human A375 cells) | pEC50 (mouse B16F10 cells)
O=C(Cc1ccc(-c2ccc(Cl)cc2)s1)NCCN1CCOCC1 [AB1062, 2-(5-(4-chlorophenyl)thiophen-2-yl)-N-(2-morpholinoethyl)acetamide hydrochloride] | 4.31 | 4.49
O=C(Cc1ccc(-c2ccc(F)cc2)s1)NCCN1CCOCC1 [AB1093, 2-(5-(4-fluorophenyl)thiophen-2-yl)-N-(2-morpholinoethyl)acetamide] | 4.51 | 4.44
O=C(Cc1ccc(-c2ccc(Cl)cc2Cl)s1)NCCN1CCOCC1 [AB1099, 2-(5-(2,4-dichlorophenyl)thiophen-2-yl)-N-(2-morpholinoethyl)acetamide] | 4.76 | 5.00
O=C(Cc1ccc(-c2ccccc2)s1)NCCN1CCOCC1 [AB1102, N-(2-morpholinoethyl)-2-(5-phenylthiophen-2-yl)acetamide] | 4.15 | 4.25
O=C(Cc1ccc(-c2cccc(F)c2)s1)NCCN1CCOCC1 [AB1108, 2-(5-(3-fluorophenyl)thiophen-2-yl)-N-(2-morpholinoethyl)acetamide] | 4.47 | 4.36
O=C(Cc1ccc(-c2ccc(Cl)cc2Cl)s1)NCCCN1CCOCC1 [AB1110, 2-(5-(2,4-dichlorophenyl)thiophen-2-yl)-N-(3-morpholinopropyl)acetamide] | 4.20 | 5.20
O=C(Cc1ccc(-c2cccc(Cl)c2)s1)NCCN1CCOCC1 [AB1113, 2-(5-(3-chlorophenyl)thiophen-2-yl)-N-(2-morpholinoethyl)acetamide] | 4.74 | 4.33
COc1ccc(-c2ccc(CC(=O)NCCN3CCOCC3)s2)cc1 [AB1115, 2-(5-(4-methoxyphenyl)thiophen-2-yl)-N-(2-morpholinoethyl)acetamide] | – | 4.27
O=C(Cc1ccc(-c2ccc(C(F)(F)F)cc2)s1)NCCN1CCOCC1 [AB1116, N-(2-morpholinoethyl)-2-(5-(4-(trifluoromethyl)phenyl)thiophen-2-yl)acetamide] | – | 4.86
Cc1cc(C)n(-c2cccc(-c3ccc(CC(=O)NCCN4CCOCC4)s3)c2)n1 [AB1117, 2-(5-(3-(3,5-dimethyl-1H-pyrazol-1-yl)phenyl)thiophen-2-yl)-N-(2-morpholinoethyl) acetamide] | 4.57 | 4.68
O=C(Cc1ccc(-c2ccc(Cl)cc2)s1)NCCCN1CCOCC1 [AB1118, 2-(5-(4-chlorophenyl)thiophen-2-yl)-N-(3-morpholinopropyl)acetamide] | 4.50 | 4.71

Further molecules by rising pEC50 (human A375 cells), results first:

pEC50 (human A375 cells) | pEC50 (mouse B16F10 cells) | SMILES
4.86 | 5.19 | O=C(Cc1ccc(-c2ccc(Cl)cc2Cl)s1)NCCN1CCS(=O)(=O)CC1 [AB1109, 2-(5-(2,4-dichlorophenyl)thiophen-2-yl)-N-(2-(1,1-dioxidothiomorpholino)ethyl)acetamide]
4.97 | – | O=C(Cc1ccc(-c2ccc(Cl)cc2)s1)N1CCOCC1 [AB1151, 2-(5-(4-chlorophenyl)thiophen-2-yl)-1-morpholinoethan-1-one]
5.07 | 5.02 | O=C(Cc1ccc(-c2ccc(Cl)cc2Cl)s1)NCCCN1CCS(=O)(=O)CC1 [AB1119, 2-(5-(2,4-dichlorophenyl)thiophen-2-yl)-N-(3-(1,1-dioxidothiomorpholino)propyl)acetamide]
5.22 | – | O=C(Cc1ccc(-c2cc(Cl)cc(Cl)c2)s1)NCCCN1CCOCC1 [AB1162, 2-(5-(3,5-dichlorophenyl)thiophen-2-yl)-N-(3-morpholinopropyl)acetamide]
5.28 | 5.18 | CCCCNC(=O)Cc1ccc(-c2ccc(Cl)cc2)s1 [AB1010, N-butyl-2-(5-(4-chlorophenyl)thiophen-2-yl)acetamide]
5.29 | – | O=C(Cc1ccc(-c2cc(Cl)cc(Cl)c2)s1)NCCN1CCS(=O)(=O)CC1 [AB1163, 2-(5-(3,5-dichlorophenyl)thiophen-2-yl)-N-(2-(1,1-dioxidothiomorpholino)ethyl)acetamide]
5.31 | – | O=C(Cc1ccc(-c2ccc(Cl)cc2)s1)N1CCSCC1 [AB1152, 2-(5-(4-chlorophenyl)thiophen-2-yl)-1-thiomorpholinoethan-1-one]
5.37 | 4.90 | O=C(Cc1ccc(-c2cc(Cl)cc(Cl)c2)s1)NCCN1CCOCC1 [AB1114, 2-(5-(3,5-dichlorophenyl)thiophen-2-yl)-N-(2-morpholinoethyl)acetamide]
5.43 | 5.01 | O=C(Cc1ccc(-c2cc(Cl)cc(Cl)c2)s1)NCCCN1CCS(=O)(=O)CC1 [AB1164, 2-(5-(3,5-dichlorophenyl)thiophen-2-yl)-N-(3-(1,1-dioxidothiomorpholino)propyl)acetamide]
